Test [1] is described as follows: stress-induced erosion test (Senay and Levine), anti-ulcer activity. Format: in vivo. The method, then:
Anti-ulcer activity was determined by the stress-induced erosion test of Senay and Levine, Proc. Soc. Exp. Biol. Med., 124, 1221-3 (1967).

The target in a further test is T1, H^+ /K^+ ATPase (Oryctolagus cuniculus, UniProt P27112).
T1 construct: Rabbit gastric glands are isolated from gastric mucosa from the corpus region of the stomach; from tissue; host or cells: isolated gastric glands from rabbit gastric mucosa, corpus region of the stomach
T1 sequence (P27112 whole entry): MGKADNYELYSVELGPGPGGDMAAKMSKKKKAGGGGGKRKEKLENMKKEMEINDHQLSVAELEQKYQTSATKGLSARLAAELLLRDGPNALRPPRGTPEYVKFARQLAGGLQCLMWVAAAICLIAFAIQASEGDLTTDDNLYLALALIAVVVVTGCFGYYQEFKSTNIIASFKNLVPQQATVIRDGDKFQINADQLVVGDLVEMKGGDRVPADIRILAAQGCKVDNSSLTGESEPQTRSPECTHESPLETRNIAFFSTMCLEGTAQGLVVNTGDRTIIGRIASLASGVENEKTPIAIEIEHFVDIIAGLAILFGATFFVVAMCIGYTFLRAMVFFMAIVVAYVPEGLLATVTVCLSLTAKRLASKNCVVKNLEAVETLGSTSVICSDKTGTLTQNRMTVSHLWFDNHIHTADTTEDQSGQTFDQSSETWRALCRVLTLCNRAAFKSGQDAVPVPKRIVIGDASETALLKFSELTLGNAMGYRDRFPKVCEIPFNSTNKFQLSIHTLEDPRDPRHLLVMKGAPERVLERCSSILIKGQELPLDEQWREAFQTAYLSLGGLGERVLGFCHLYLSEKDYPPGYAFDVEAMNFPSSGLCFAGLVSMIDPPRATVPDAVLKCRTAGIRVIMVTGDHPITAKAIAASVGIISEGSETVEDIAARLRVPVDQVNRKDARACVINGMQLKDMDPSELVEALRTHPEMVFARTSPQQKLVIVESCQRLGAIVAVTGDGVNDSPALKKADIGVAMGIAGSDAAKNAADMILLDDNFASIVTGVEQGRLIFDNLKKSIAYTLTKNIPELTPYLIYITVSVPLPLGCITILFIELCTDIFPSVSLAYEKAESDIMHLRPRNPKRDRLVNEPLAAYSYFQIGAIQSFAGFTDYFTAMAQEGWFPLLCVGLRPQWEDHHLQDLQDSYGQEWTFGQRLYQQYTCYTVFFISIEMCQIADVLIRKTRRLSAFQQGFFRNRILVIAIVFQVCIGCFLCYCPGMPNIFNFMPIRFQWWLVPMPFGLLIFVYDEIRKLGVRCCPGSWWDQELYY
T1 sequence (P18597 whole entry partner): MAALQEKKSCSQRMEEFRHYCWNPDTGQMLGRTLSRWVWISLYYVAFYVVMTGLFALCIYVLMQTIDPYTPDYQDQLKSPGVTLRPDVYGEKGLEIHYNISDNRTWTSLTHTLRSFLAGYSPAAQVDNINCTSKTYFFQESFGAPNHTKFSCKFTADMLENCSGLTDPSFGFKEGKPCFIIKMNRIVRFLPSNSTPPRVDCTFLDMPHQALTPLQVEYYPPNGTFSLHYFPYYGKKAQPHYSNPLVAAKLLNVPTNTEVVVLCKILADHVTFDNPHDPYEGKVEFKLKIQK
In words: inhibition of 14C-aminopyrine accumulation in rabbit isolated gastric glands stimulated by DBcAMP or high K+ (H+/K+ ATPase inhibition). Format: cell-based. The settings on record: 10^-4 M, 14C-aminopyrine uptake. As for the experimental part: Compounds of formula I were also tested for anti-secretory activity by their ability to inhibit the highly specific proton transporting enzyme H^+ /K^+ ATPase.
Potential H^+ /K^+ ATPase inhibitors are evaluated by a technique involving the measurement of aminopyrine accumulation in rabbit isolated gastric glands. Aminopyrine, which is a weak base, accumulates in acid-secreting cells; therefore, uptake of aminopyrine is increased by secretagogues and an inhibitor of acid secretion will reduce the response to one or more secretagogues depending upon its site of action. Compounds which reduce the response to dibutyryl cyclic adenosine monophosphate (DBcAMP) stimulation are assumed to have an intracellular site of action, and those which reduce the response to both DBcAMP and high potassium ion concentration (K^+) are thought to have an intracellular site of action at the secretory surface of the parietal cell, involving the highly specific proton - transporting enzyme, H^+ /K^+ ATPase. The following test procedure is used:
Rabbit gastric glands are isolated from gastric mucosa from the corpus region of the stomach by a method based on one described by Berglindh T., Obrink K. J., Acta Physiol. Scand. 96, 150-159 (1976). Measurement of aminopyrine uptake is carried out using a modification of the method described by Berglindh T., Hellander H. F., Obrink K. J. (ibid, 97, 401-414, 1976).
Compounds are tested at a concentration of 10^-4 M, initially, and in some cases at lower concentrations, for their ability to inhibit ^14 C-aminopyrine uptake in gastric glands, stimulated by DBcAMP and high K^+ respectively. Results are expressed as the % inhibition of the maximum response to the secretagogue induced by the test compound. An inhibitor of H^+ /K^+ ATPase would be expected to reduce the response to both secretagogues.

Test [2] can be described thus: anti-secretory test of Shay et al (as exemplified by Beattie et al). The settings on record: read-out: Anti-Secretory (Shay et al) % Change in volume. The test is classed as in vivo.
The mark [3] stands for this setting: DBcAMP stimulation, read-out: % Inhibition to Stimulation by DBcAMP at 10^-4.
The mark [4] stands for this setting: high K+ stimulation, read-out: % Inhibition to Stimulation by K^+ at 10^-4.

Where two headings read alike, the source gives them in different places.

On to `c1ccc(CSc2nc3cccc4c3n2CCC4)nc1` [Example 1, 5,6-Dihydro-2-(2-pyridylmethylthio)-4H-imidazo-[4,5,1-ij]-quinoline], for which the inhibition in vivo – broadly, the share of the control response that was lost under treatment – at 100 mg/kg in test [1] was determined as 69%. In addition, the inhibition (as a rule, the drop in the measured response relative to a control, in per cent) at 100 µM on H^+ /K^+ ATPase (setting [3]) is 34%.

For `[O-][S+](Cc1ccccn1)c1nc2cccc3c2n1CCC3` (stereo not drawn) [Example 2, 2-(2-Pyridylmethylsulphinyl)-5,6-dihydro-4H-imidazo-[4,5,1-ij]quinoline], at 100 mg/kg the inhibition in vivo in test [1] was 60%. In addition, the inhibition at 100 µM at H^+ /K^+ ATPase (setting [3]) was found to be 97%; at H^+ /K^+ ATPase (setting [4]), 65%.

As for `Cc1cccnc1CSc1nc2cccc3c2n1CCC3` [Example 3, 5,6-Dihydro-2-(2-(3-methylpyridyl)methylthio)-4-[H]-imidazo-[4,5,1-ij]quinoline], the inhibition in vivo at 100 mg/kg in test [1] came to 68%. Further, on H^+ /K^+ ATPase (setting [4]), the inhibition at 100 µM is -109%.

As to `C1=Cc2cccc3nc(SCc4ccccn4)n(c23)C1` [Example 4, 2-(2-Pyridylmethylthio)-4[H]-imidazo-[4,5,1-ij]quinoline], the inhibition at 100 µM was 16.7% at H^+ /K^+ ATPase (setting [3]) and 35.5% on H^+ /K^+ ATPase (setting [4]).

Turning to `Cc1cccnc1C[S+]([O-])c1nc2cccc3c2n1CCC3` (stereo not drawn) [Example 5, 5,6-Dihydro-2-(2-(3-methylpyridyl)methylsulphinyl)-[4H]-imidazo-[4,5,1-ij]quinoline], at H^+ /K^+ ATPase (setting [3]), the inhibition at 100 µM was found to be 66%.

For the compound `c1ccc(-c2cccc(CSc3nc4cccc5c4n3CCC5)n2)cc1` [Example 6, 5,6-Dihydro-2-(2-(6-phenylpyridyl)methylthio)-[4H]-imidazo-[4,5,1-ij]quinoline], 100 mg/kg produced 58% inhibition in vivo in test [1]. For the same compound, the results for the inhibition at 100 µM on H^+ /K^+ ATPase (setting [3]) and at H^+ /K^+ ATPase (setting [4]) were 36% and 182%, respectively.

In the case of `Cc1cnc(CSc2nc3cccc4c3n2CCC4)c(C)c1` [Example 7, 5,6-Dihydro-2-(2-(3,5-dimethylpyridyl)methylthio)-[4H]-imidazo-[4,5,1-ij]quinoline], the inhibition at 100 µM worked out at 70% on H^+ /K^+ ATPase (setting [3]) and 74% on H^+ /K^+ ATPase (setting [4]).

For the compound `Cc1cnc(C[S+]([O-])c2nc3cccc4c3n2CCC4)c(C)c1` (stereo not drawn) [Example 8], the inhibition at 100 µM at H^+ /K^+ ATPase (setting [3]) is 48%.

Regarding `c1ccc(-c2nc(CSc3nc4cccc5c4n3CCC5)cs2)cc1` [Example 9, 5,6-Dihydro-2-[(2-phenylthiazol-4-yl)methylthio]-4H-imidazo[4,5,1-ij]quinoline], the inhibition at 100 µM on H^+ /K^+ ATPase (setting [3]) came out at 75%; on H^+ /K^+ ATPase (setting [4]), 122%.

`COc1cc2c3c(c1)nc(SCc1cccc(-c4ccccc4)n1)n3CCC2` [Example 10B, 5,6-Dihydro-8-methoxy-2-[(6-phenylpyridin-2-yl)-methylthio]-4H-imidazo[4,5,1-ij]quinoline]: the figures for the inhibition at 100 µM on H^+ /K^+ ATPase (setting [3]) and at H^+ /K^+ ATPase (setting [4]) were 98% and 136%, respectively.

Take `c1ccc2nc(CSc3nc4cccc5c4n3CCC5)ccc2c1` [Example 11, 5,6-dihydro-2-(quinolin-2-ylmethylthio)-4H-imidazo[4,5,1-ij]quinoline]: the change in vivo at 30 mg/kg in test [2] turned out to be 22%. Besides, the inhibition at 100 µM at H^+ /K^+ ATPase (setting [3]) was 62%; at H^+ /K^+ ATPase (setting [4]) it was 147%.

On to `COc1cc2c3c(c1)nc(SCc1ccc4ccccc4n1)n3CCC2` [Example 19, 5,6-Dihydro-8-methoxy-2-(quinolin-2-ylmethylthio)-4H-imidazo-[4,5,1-ij]quinoline], for which the inhibition at 100 µM on H^+ /K^+ ATPase (setting [3]) worked out at 70%; on H^+ /K^+ ATPase (setting [4]), 124%.

Regarding `COc1cc2c3c(c1)nc(SCc1ccncc1)n3CCC2` [Example 20, 5,6-Dihydro-8-methoxy-2-(4-pyridylmethylthio)-4H-imidazo[4,5,1-ij]quinoline], the inhibition at 100 µM on H^+ /K^+ ATPase (setting [3]) was 68%.

Regarding `c1cc2c3c(c1)nc(SCc1ccncc1)n3CCC2` [Example 21, 5,6-Dihydro-2-(4-pyridylmethylthio)-4H-imidazo[4,5,1-ij]-quinoline], the inhibition at 100 µM on H^+ /K^+ ATPase (setting [3]) amounted to 66%.

The record behind these values is patent publication US4703044A, “Imidazoquinolines containing other heterocyclic groups, useful as anti-ulcer or anti-secretory agents” (John Wyeth & Brother Limited, priority 1983, dated 1987).
